Source: patent EP0109354B1, “Biocidally active mixture” (priority 1982, dated 1984)
Read-outs that look alike come from different tables or passages of the source.

Tests used:
[1] = test system: Schleimbildung und Algenbewuchs; assay: Efficacy in outdoor cooling circuits, visual assessment of growth on the plates; conditions: phosphonium compound alone, same concentration and frequency (21 ppm twice a week); stated conditionally ('würde')
Description: Untersuchung der Wirksamkeit in Kühlkreisläufen
Die im Freien stehenden (natürliche Sonneneinstrahlung, Staubeinfall, Witterungseinflüsse) Kühlkreisläufe bestanden aus: • a) einem Kunststoffass mit einem Volumen von 113 I und einem Überlauf • b) einer Pumpe (21 1/min bei 3 m Förderhöhe) • c) einem Kühlturm mit Oregon-(Splint), Oregon-(Kernholz), Eiche-, Fichte-, Asbestzement- und PVC-Platte
Die Frischwasser-Zufuhr war so eingestellt, dass der Spritz- und Verdunstungsverlust ausgeglichen wurde und die Biocide in 24 h ungefähr 1:2 verdünnt wurden.
Die Kühlkreisläufe sind durch den natürlichen Staubeinfall und nicht durch gezielte Beimpfung infiziert.
Zur Verhinderung der Schleimbildung und des Algenwuchses wurde der Kühlkreislauf mit 21 ppm 2mal/Woche einer Lösung von 45% der Verbindung 17 und 5% der Verbindung 13 in Wasser behandelt.
Ausgewertet wurde der Versuch durch visuelle Beobachtung des Bewuchses auf den Platten.
Der unbehandelte Kreislauf zeigte schon nach 4 Wochen den ersten Algenbewuchs, die Hölzer waren nach 5 Monaten verschleimt und mit einer dicken Algenschicht überzogen. Der mit 21 ppm 2mal/Woche behandelte Kreislauf zeigte keinerlei Anzeichen von beginnender Schleimbildung und Algenbewuchs.

In the case of `CCCCCCCCCCCCCC[P+](CCCC)(CCCC)CCCC.[Br-]` [Verbindung 19, Tri-n-butyl-n-tetradecylphosphoniumbromid], the “P-Verbindung (Mol-%) Endkonzentration” value (Bsp. 7: as Beispiel 1, P compound 19 with Sn compound 2) is reported as 15,9 Mol-%.

For Tri-n-butylzinnaphtenat [Verbindung 8], the “Sn-Verbindung (Mol-%) Endkonzentration” value (Bsp. 4: as Beispiel 1, Sn compound 8 in solution of P compound 17) was 7,1 Mol-%.

For `CCCCCCCCCCCC[P+](CCCC)(CCCC)CCCC.[Cl-]` [Verbindung 16, Tri-n-butyl-n-dodecyl-phosphoniumchlorid], the “P-Verbindung (Mol-%) Endkonzentration” value (Bsp. 6: as Beispiel 1, P compound 16 with Sn compound 2) was 17,9 Mol-%.

In the case of `CCCCCCCCCC[P+](CCCC)(CCCC)CCCC.[Cl-]` [Verbindung 18, Tri-n-butyl-n-decyl-phosphoniumchlorid], the “P-Verbindung (Mol-%) Endkonzentration” value (Bsp. 5: as Beispiel 1, P compound 18 with Sn compound 2) is reported as 19,2 Mol-%.

With `CCCCCCCCCCCCCC[P+](CCCC)(CCCC)CCCC.[Cl-]` [Verbindung 17, Tri-n-butyl-tetradecyl-phosphoniumchlorid] the “Unterdrückung des Algenbewuchses” value [1] was “nicht gänzlich unterdrücken”, the “Endkonzentration der P-Verbindung” value (Beispiel 2: with 3,8 Mol-% of Vrb. 3 dissolved) was 15.3 Mol-% and the “Endkonzentration der P-Verbindung” value (Beispiel 3: with 2,9 Mol-% of Vrb. 2 dissolved) was 16,7 Mol-%. The “P-Verbindung (Mol-%) Endkonzentration” value (Bsp. 4: as Beispiel 1, P compound 17 with Sn compound 8) was 13,1 Mol-%.
